Assay results published in BindingDB's records for doi:10.1021/jm00064a006 (Eli Lilly, 1993).

Experiment: The antagonist activity measured as inhibition of LTB4 response in aggregation of neutrophils

Row | Structure (SMILES) | IC50 [µM]
1 | CCCCCCCCCCOc1ccc2c(=O)c3cc(C(=O)O)ccc3oc2c1CCC(=O)O [5-(2-Carboxy-ethyl)-6-decyloxy-9-oxo-9H-xanthene-2-carboxylic acid] | 0.513
2 | COc1ccc(/C=C/CCCCOc2ccc3c(=O)c4cc(C(=O)O)ccc4oc3c2CCC(=O)O)cc1 [LY-210073] | 0.133
